Source: patent publication US10265342B2, “Sustained-release composition, method for fabricating, and use thereof” (NATIONAL TSING HUA UNIVERSITY, priority 2017, dated 2019)

Experiments:
[1] = test system: hindlimb ischemia (ligation of femoral artery); test: mouse hindlimb ischemia model; assay type: in vivo, BALB/c mice; details: intramuscular injection into quadriceps muscle
Method: As mentioned above, the sustained-release composition can be applied for promoting angiogenesis in ischemic tissues. Thus, the effect of such the use will be further evaluated through a mouse hindlimb ischemia model and utilizes the sustained-release composition of the 1st embodiment of the present disclosure. In the present disclosure, all animal experimentation processes are performed according to an animal care and use guideline promulgated by Council of Agriculture, Executive Yuan, R.O.C. (Taiwan). In particular, BALB/c mice are served as a platform for developing the animal model. In the beginning, for each of the mice, 2 L/min of oxygen and 4% inhaled isoflurane are provided into an anesthesia box to introduce a general anesthesia in the mouse under room temperature, and the mouse is intubated and supplied by 3% isoflurane continuously. After a medial thigh area of the mouse is cut by a scalpel, the mouse is subjected by ligation of upper end and lower end of femoral artery to simulate hindlimb ischemia.
Subsequently, an intramuscular injection is performed into the quadriceps muscle adjacent to the proximal ligation site. The abovementioned mice can be divided into four groups according to the treatment. In details, the mice of Group 1 are only injected with physiological saline. […] The mice of Group 4 are injected with the sustained-release composition of the 1st embodiment. […]

[2] = cited from earlier work

Compound: C=CCSSSCC=C [free diallyl trisulfide, diallyl trisulfide]
- hindlimb kept or lost after fourteen days [1]: lose its hindlimb
- muscle atrophy of the hindlimb ([1]; fourteen days): slighter than that of the mice of Group 1 and Group 3
- half-life in aqueous solution [2]: around 15 minutes
